Patent EP1182931B1, “STABLE BIOCIDAL COMPOSITIONS” (NUFARM LIMITED, priority 1999, dated 2000)

How the values were obtained:
[1] = tested on: gastrointestinal roundworm; assay: Sheep trial CO52: faecal egg count reduction; assay type: in vivo; conditions: lambs, oral, six days after treatment, versus untreated controls, arithmetic mean
Procedure: An anthelmintic drench trial was conducted on a sheep farm in North Auckland, New Zealand using 67 Romney and Romney cross suffock lambs (18-35kg bodyweight) of mixed sex.
The 67 lambs were randomly allocated by egg count into 4 groups of 10 lambs (Groups A, B, C, D) and 3 groups of 9 lambs (Groups E, F, G). The 3 groups of 9 lambs (E, F G) were drenched with a commercial formulation from one of the three broad spectrum anthelmintic drench families consisting of albendazole, a member of the benzimidazole or white drenches (Group E), levamisole, a member of the imidazothiazole / tetrahydropyrimidazole or clear drenches (Group F) and Ivermectin, a member of the macrocyclic lactones (Group G). Of the 4 remaining groups, Group A remained as untreated controls, Group B received the unmineralised test product (formulation 00-27C) containing all 3 actives (albendazole, levamisole, ivermectin), Group C received the same basic formulation but with the addition of selenium as the sodium selenate (formulation 00-27B) and Group D received the same basic formulation but with the addition of both selenium and cobalt with cobalt given as the cobalt chelate (formulation 00-27A) - See Table 27.
All animals were weighed and dosed by syringe to the nearest 0.1ml with the appropriate product for that group. Six days after oral treatment the animals were slaughtered and faecal samples were collected at slaughter.

Haemonchus = assay: Trial C0040 sheep roundworm and tapeworm trial: worm count; assay type: in vivo; conditions: lambs, oral, slaughter Day 7 and Day 8, arithmetic means
Procedure: (§1) Fifty three pasture fed 6-8 month old Romney lambs from the southern North Island, New Zealand that were naturally infected with tapeworms, were orally dosed with three times the standard dose of ivermectin (3 x 0.2 = 0.6mg/kg liveweight) to remove their naturally acquired roundworm infection while leaving their tapeworm burden. The animals were then housed indoors on slats to prevent natural reinfections with roundworms and each lamb was orally dosed daily for 5 days with a similar mixture of 5,000 roundworm larvae (total 25,000 larvae) consisting primarily of Haemonchus, Trichostrongylus, Ostertagia and Nematodirus. The larvae originated from four New Zealand sheep farms, three of which had evidence of resistance to one or more drench families. Lambs were injected with 0.5mL of a corticosteroid (opticortenol) two days prior to artificial oral larval infection. This was done to assist establishment of the worm larvae. 25 days after infection the animals were restrictively allocated to groups by bodyweight and also the presence of tapeworm infection, to one of seven treatment groups (Groups A-G). Four treatment groups (the untreated control and test products Groups A-D) had 8 animals per group, and three groups (E-G) contained 7 animals per group. The groups with 7 animals per group (E, F, G) were orally dosed with a single standard commercial product. All animals were slaughtered at Day 7 and Day 8 after treatment and total numbers of gastrointestinal roundworms and tapeworms counted.

Nematodirus = assay: as above; assay type: in vivo; conditions: lambs, oral, slaughter Day 7 and Day 8
Procedure: as §1

Ostertagia = assay: as above; assay type: in vivo; conditions: lambs, oral, slaughter Day 7 and Day 8
Procedure: as §1

Trichostrongylus = assay: as above; assay type: in vivo; conditions: lambs, oral, slaughter Day 7 and Day 8
Procedure: as §1

Moniezia = assay: Trial C0040 sheep roundworm and tapeworm trial: tapeworm count; assay type: in vivo; conditions: lambs, oral, slaughter Day 7 and Day 8
Procedure: as §1, with “The groups with 7 animals per group (E, F, G) were orally dosed with a single standard commercial product.” left out

Protozoa = conditions: Spectrum of Activity; cited from earlier work
Gastrointestinal Worms = conditions: Spectrum of Activity; cited from earlier work

Compound	reductions in egg count [1]	reduction of Nematodirus in the small intestine (Nematodirus)	removal of worm numbers, Ostertagia (Ostertagia)	Nematodes Gastrointestinal Worms (Gastrointestinal Worms)	also measured
CCCSc1ccc2nc(NC(=O)OC)[nH]c2c1 [Albendazole]	63%	59%	64%	–	reduction in worm numbers, Haemonchus (Haemonchus): 93%; efficacy against Trichostrongylus in the small intestine (Trichostrongylus): 80%; effect on tapeworm Moniezia (Moniezia): slight trend to less Moniezia volume; Protozoa (Protozoa): +(Giardia)
Cc1cc(C(C#N)c2ccc(Cl)cc2)c(Cl)cc1NC(=O)c1cc(I)cc(I)c1O (stereo not drawn) [Closantel]	–	–	–	+(Haemonchus)	–
COC(=O)Nc1nc2cc(Sc3ccccc3)ccc2[nH]1 [Fendendazole]	–	–	–	–	Protozoa (Protozoa): +(Giardia)
c1ccc([C@H]2CN3CCSC3=N2)cc1 [Levamisole]	22%	99%	96%	–	–
N#Cc1cc(I)c(O)c([N+](=O)[O-])c1 [Nitroxyinil]	–	–	–	+(Haemonchus)	–
O=C(Nc1cc(Cl)cc(Cl)c1O)c1c(O)c(Cl)cc(Cl)c1Cl [Oxydosanide]	–	–	–	+(Haemonchus)	–
O=C(Nc1ccc(Oc2ccc(Cl)cc2)c(Cl)c1)c1cc(I)cc(I)c1O [Rafoxamide]	–	–	–	+(Haemonchus)	–
Ivermectin	79%	100%	54%	–	–
